From article PMC3985444 (Journal of Chemical Information and Modeling, 2014)

How the values were obtained:
human 5-HT1A receptor = biological target: T1, human 5-HT1A receptor (Homo sapiens, UniProt P08908); experiment: Radioligand competition binding assay
T1 sequence (P08908 1-422): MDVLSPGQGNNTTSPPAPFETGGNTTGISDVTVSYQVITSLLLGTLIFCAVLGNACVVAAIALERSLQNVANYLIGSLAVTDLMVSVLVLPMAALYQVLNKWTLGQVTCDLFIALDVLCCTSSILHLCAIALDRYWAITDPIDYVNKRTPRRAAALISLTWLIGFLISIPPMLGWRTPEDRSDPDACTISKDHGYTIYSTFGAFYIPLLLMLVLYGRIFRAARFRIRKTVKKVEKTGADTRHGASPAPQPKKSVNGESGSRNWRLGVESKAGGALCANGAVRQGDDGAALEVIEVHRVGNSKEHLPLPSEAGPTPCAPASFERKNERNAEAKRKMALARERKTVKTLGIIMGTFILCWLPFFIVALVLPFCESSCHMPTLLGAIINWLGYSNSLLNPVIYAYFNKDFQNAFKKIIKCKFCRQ

5-HT2A = settings: cited from earlier work
dopamine receptors = settings: cited from earlier work
5-HT1D = settings: cited from earlier work
5-HT1B = settings: cited from earlier work

Structure (SMILES)	Ki (human 5-HT1A receptor) [nM]	binding with 5-HT2A (5-HT2A)	binding with dopamine receptors (dopamine receptors)	binding to 5-HT1D (5-HT1D)	binding to 5-HT1B (5-HT1B)
CN1CCCCC1CCN1c2ccccc2Sc2ccc([S+](C)[O-])cc21 (stereo not shown) [Mesoridazine]	33.1	potent binding	potent binding	–	–
CC[C@@H](CO)NC(=O)[C@@H]1C=C2c3cccc4c3c(cn4C)C[C@H]2N(C)C1 [Methysergide]	26	–	–	–	–
CN1C[C@@H](CO)C=C2c3cccc4[nH]cc(c34)C[C@H]21 [ST057540, [(8α)-6-methyl-9,10-didehydroergolin-8-yl]methanol]	2.3	–	–	high-affinity binding	high-affinity binding
